pIC50: −log10 of the molar value. Read-outs that look alike come from different tables or passages of the source.
Tests used:
[1] = system: P. falciparum male gametocytes; assay: P. falciparum Dual Gamete Formation Assay (PfDGFA), male readout (exflagellation); assay type: cell-based, Plasmodium falciparum NF54; details: for Selectivity Ratio M: HepG2 Tox50 versus male IC50; for inhibition at 2 µM / Average inhibition male (%) / % inhibition male (individual replicates) R1 / % inhibition male (individual replicates) R3 / % inhibition male (individual replicates) R4: 24h preincubation with gametocytes; for HitlevelM: number of replicates with >50% inhibition in the male readout
In short: (§1)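 Mature NF54 gametocytes (day 14) were incubated with compound for 24 h at 37°C under 1% O2/3% CO2, then triggered with xanthurenic acid ookinete medium plus Cy3-anti-Pfs25. Exflagellation was imaged by brightfield; after a further 24 h at 28°C, Pfs25-positive female gametes were imaged by fluorescence and counted by automated image analysis.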

HepG2 cells = assay: HepG2 cytotoxicity counter-screen; details: for Tox50: cytotoxic activity against HepG2 cells
[2] = system: P. falciparum female gametocytes; assay: P. falciparum Dual Gamete Formation Assay (PfDGFA), female readout (Pfs25-positive female gametes); assay type: cell-based, Plasmodium falciparum NF54; details: for Selectivity ratio F: HepG2 Tox50 versus female IC50; for inhibition at 2 µM / Average inhibition female (%) / % inhibition female (individual replicates) R1 / % inhibition female (individual replicates) R3 / % inhibition female (individual replicates) R4: 24h preincubation with gametocytes; for pIC50: PfDGFA, 24 h incubation with gametocytes before induction, female gamete readout, read-out: Female IC50; for HitlevelF: number of replicates with >50% inhibition in the female readout
In short: as §1

[3] = PfDGFA at 2µM, average of replicates
[4] = PfDGFA, 24 h incubation with gametocytes before induction, exflagellation readout, read-out: Male IC50

| Compound | Selectivity Ratio M [1] | HitlevelM ([1]; 2µM) | Tox50 (HepG2 cells) | Selectivity ratio F [2] | HitlevelF ([2]; 2µM) | Average inhibition male (%) [1, 3] | % inhibition male (individual replicates) R1 ([1]; PfDGFA at 2µM, replicate R1) | % inhibition male (individual replicates) R3 ([1]; PfDGFA at 2µM, replicate R3) | % inhibition male (individual replicates) R4 ([1]; PfDGFA at 2µM, replicate R4) | pIC50 [1, 4] | Average inhibition female (%) [2, 3] | % inhibition female (individual replicates) R1 ([2]; PfDGFA at 2µM, replicate R1) | % inhibition female (individual replicates) R3 ([2]; PfDGFA at 2µM, replicate R3) | % inhibition female (individual replicates) R4 ([2]; PfDGFA at 2µM, replicate R4) | pIC50 [2] | Average inhibition male (%) ([1]; 2µM, average of replicates) | % inhibition male (individual replicates) R1 ([1]; 2µM, replicate R1) | % inhibition male (individual replicates) R4 ([1]; 2µM, replicate R4) | Average inhibition female (%) ([2]; 2µM, average of replicates) | % inhibition female (individual replicates) R1 ([2]; 2µM, replicate R1) | further results |
| --- | --- | --- | --- | --- | --- | --- | --- | --- | --- | --- | --- | --- | --- | --- | --- | --- | --- | --- | --- | --- | --- |
| COc1ccc(C[C@H](N)C(=O)N[C@H]2[C@@H](O)[C@H](n3cnc4c(N(C)C)ncnc43)O[C@@H]2CO)cc1 [TCMDC-123493] | 3.72 | 4 | 3.39 µM | 0.66 | 1 | – | – | – | – | – | – | – | – | – | – | – | – | – | – | – | inhibition at 2 µM ([1]; Plasmodium falciparum, PfDGFA at 2µM, average of replicates, read-out: Average inhibition male (%)): 76.8%; inhibition at 2 µM ([1]; Plasmodium falciparum, PfDGFA at 2µM, replicate R1, read-out: % inhibition male (individual replicates) R1): 75.8%; inhibition at 2 µM ([1]; Plasmodium falciparum, PfDGFA at 2µM, replicate R2, read-out: % inhibition male (individual replicates) R2): 91.9%; inhibition at 2 µM ([1]; Plasmodium falciparum, PfDGFA at 2µM, replicate R3, read-out: % inhibition male (individual replicates) R3): 54%; inhibition at 2 µM ([1]; Plasmodium falciparum, PfDGFA at 2µM, replicate R4, read-out: % inhibition male (individual replicates) R4): 85.6%; pIC50 ([1]; Plasmodium falciparum, PfDGFA, 24 h incubation with gametocytes before induction, exflagellation readout, read-out: Male IC50): 6.04; inhibition at 2 µM ([2]; Plasmodium falciparum, PfDGFA at 2µM, average of replicates, read-out: Average inhibition female (%)): 37.8%; inhibition at 2 µM ([2]; Plasmodium falciparum, PfDGFA at 2µM, replicate R1, read-out: % inhibition female (individual replicates) R1): 41.5%; inhibition at 2 µM ([2]; Plasmodium falciparum, PfDGFA at 2µM, replicate R2, read-out: % inhibition female (individual replicates) R2): 55%; inhibition at 2 µM ([2]; Plasmodium falciparum, PfDGFA at 2µM, replicate R3, read-out: % inhibition female (individual replicates) R3): 20.7%; inhibition at 2 µM ([2]; Plasmodium falciparum, PfDGFA at 2µM, replicate R4, read-out: % inhibition female (individual replicates) R4): 33.9%; pIC50 ([2]; Plasmodium falciparum): 5.29 |
| COc1cc(NC(=O)c2sc(-c3ccc(Cl)cc3)cc2NC(=O)c2ccncc2)ccc1OCCN1CCCC1 [TCMDC-135398] | 3.15 | 3 | 6.24 µM | 2.54 | 4 | 74.1% | 92.1% | 87.5% | 101.9% | 5.70 | 76.4% | 76.9% | 72.6% | 86.6% | 5.61 | – | – | – | – | – | – |
| CC(Cc1ccc(NC(=O)c2ccc(CNCCCCc3ccccc3)cc2)cc1)NCCc1cccc(Cl)c1.Cl (stereo not shown) [TCMDC-139866] | 2.02 | 3 | 3.81 µM | 1.02 | 1 | 80.8% | 85.9% | 43.9% | 97.6% | 5.73 | 35.2% | 34.1% | 6.7% | 45.1% | 5.43 | – | – | – | – | – | – |
| Cl.N=C(NCCCCC1CCCCC1)c1cccc(C(=N)NCCCCC2CCCCC2)n1 [TCMDC-137452] | 2.02 | – | 2.66 µM | 1.43 | – | – | – | – | – | 5.88 | – | – | – | – | 5.73 | 99.3% | 93.4% | 104.5% | 47.7% | 57.8% | % inhibition female (individual replicates) R3 ([2]; 2µM, replicate R3): 31.9%; % inhibition female (individual replicates) R4 ([2]; 2µM, replicate R4): 45.9% |
| O=C(c1ccc(-c2cnc3[nH]cc(-c4ccc(C(=O)N5CCOCC5)cc4)c3c2)cc1)N1CCOCC1 [TC43] | – | – | – | – | – | – | – | – | – | – | – | – | – | – | – | – | – | – | – | – | Cytotox ratio Pf Male [1]: 65.9; pIC50 ([1]; this study, read-out: Pf DGFA IC50 MALE): 6.36; Mean TOX (HepG2 cells; mean of the HepG2 TOX50 values): 28.99 µM; Cytotox ratio Pf Female [2]: 2.9 |
| CC(=NNC(=S)NCCc1ccccn1)c1ccccn1 [TCMDC-137895] | 2.92 | – | 1.15 µM | 2.26 | – | – | – | – | – | 6.41 | – | – | – | – | 6.29 | 93.4% | 86.5% | 94.6% | 79.8% | 58.7% | % inhibition male (individual replicates) R3 ([1]; 2µM, replicate R3): 96.2%; % inhibition female (individual replicates) R3 ([2]; 2µM, replicate R3): 98.6%; % inhibition female (individual replicates) R4 ([2]; 2µM, replicate R4): 74.6% |

Source: article PMC10584170, “Machine learning-based phenotypic imaging to characterise the targetable biology of Plasmodium falciparum male gametocytes for the development of transmission-blocking antimalarials” (PLOS Pathogens, 2023)
